Reference: US20240174690A1, “ANNULATED 2-AMINO-3-CYANO THIOPHENES AND DERIVATIVES FOR THE TREATMENT OF CANCER” (BOEHRINGER INGELHEIM INTERNATIONAL GMBH, priority 2021, published 2024)

Columns and labels:
[1] = Caco-2 assay (permeability PappAB, PappBA, efflux ratio); type: in vitro ADME; conditions: human, Caco-2, 10 μM test compound, pH 7.4; for efflux ratio at 90 min, 10 μM: efflux ratio PappBA/PappAB, read-out: Caco ER; for Papp A→B at 90 min, 10 μM: apical to basolateral
Procedure, shortened: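 Confluent Caco-2 monolayers on filter supports, 0.25% BSA in both donor and receiver buffer; transport measured a-b and b-a. After 25-30 min preincubation at 37 °C, samples at 0, 30, 60, 90 min quantified by HPLC/MS/MS. Papp from receiver amount per time, filter area and initial donor concentration; efflux ratio = PappBA/PappAB.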

[2] = biological target: KRAS (G12D)::SOS1 (Homo sapiens (Human), UniProt P01116, G12D); assay: KRAS::SOS1 AlphaScreen binding assay, KRAS G12D
Procedure, shortened: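 AlphaScreen measurement of compound disruption of biotinylated, GDP-loaded KRAS 1-169 (10 nM; G12C 7.5 nM) binding to GST-SOS1 564-1049 (5 nM with G12D/G12C, 10 nM otherwise), with 10 μM GDP in PBS/0.1% BSA/0.05% Tween 20. Timing was 30 min compound preincubation, then 60 min with beads at room temperature; top concentration 100 μM, 4-parameter IC50.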

KRAS (G12D)::SOS1, sequence (P01116 other isoform, or with tags, fused parts or gaps G12D): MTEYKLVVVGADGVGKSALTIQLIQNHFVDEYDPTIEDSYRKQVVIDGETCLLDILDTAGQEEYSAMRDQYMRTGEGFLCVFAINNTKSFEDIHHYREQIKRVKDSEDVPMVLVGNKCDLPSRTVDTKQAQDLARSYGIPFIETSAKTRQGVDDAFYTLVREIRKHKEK

efflux ratio at 90 min, 10 μM [1] | IC50 [2] [nM] | Papp A→B at 90 min, 10 μM [1] [×10⁻⁶ cm/s] | Structure (SMILES)
1.8 | 1 | – | C[C@H](Oc1nc(-c2noc3c2CCC[C@@]32CCCc3sc(N)c(C#N)c32)nc(N2CCNC3(CC3)C2)c1Cl)[C@@H]1C[C@@H](F)CN1C [II-156]
7.3 | 1 | 4.5 | C[C@H](Oc1cc(N2CCOC2=O)nc(-c2noc3c2CCC[C@@]32CCCc3sc(N)c(C#N)c32)n1)[C@@H]1CCCN1C [II-143]
0.8 | 3 | – | C[C@H](Oc1cc(-n2cncc3ccnc2-3)nc(-c2onc3c2CCC[C@@]32CCCc3sc(N)c(C#N)c32)n1)[C@@H]1CCCN1C [I-14]
2.6 | 1 | – | C[C@H](Oc1cc(-n2ccc(-c3cn(C4CCOCC4)nn3)n2)nc(-c2noc3c2CCC[C@@]32CCCc3sc(N)c(C#N)c32)n1)[C@@H]1CCCN1C [II-210]
39.5 | 1 | 1 | C[C@H](Oc1cc(-n2cc3c(n2)CNC3)nc(-c2noc3c2CCC[C@@]32CCCc3sc(N)c(C#N)c32)n1)[C@@H]1CCCN1C [II-168]
2.6 | 1 | 11 | C[C@H](Oc1cc(-n2ccc(C(=O)N(C)C3COC3)n2)nc(-c2noc3c2CCC[C@@]32CCCc3sc(N)c(C#N)c32)n1)[C@@H]1CCCN1C [II-194]
11.6 | 1 | 2.5 | C[C@H](Oc1cc(N2CCNC3(COC3)C2)nc(-c2noc3c2CCC[C@@]32CCCc3sc(N)c(C#N)c32)n1)[C@@H]1C[C@@H](F)CN1C [II-150]
3.6 | 1 | 4.4 | C[C@H](Oc1cc(-n2cc3ccn([C@H]4CCOC4)c(=O)c3n2)nc(-c2noc3c2CCC[C@@]32CCCc3sc(N)c(C#N)c32)n1)[C@@H]1CCCN1C [II-202]
2 | 2 | – | C[C@H](Oc1cc(N2CCN(C)C3(CCOC3)C2)nc(-c2noc3c2CCC[C@@]32CCCc3sc(N)c(C#N)c32)n1)[C@@H]1C[C@@H](F)CN1C (some centres unmarked) [II-151]
2.5 | 1 | – | C[C@H](Oc1cc(N2CCNC3(CC3)C2)nc(-c2noc3c2CCC[C@@]32CCCc3sc(N)c(C#N)c32)n1)[C@@H]1C[C@@H](F)CN1C [II-165]
8 | 4 | 4 | C[C@H](O)Cn1ncc(-c2cc(O[C@@H](C)[C@@H]3CCCN3C)nc(-c3noc4c3CCC[C@@]43CCCc4sc(N)c(C#N)c43)n2)n1 [II-134]
2.5 | 1 | – | C[C@H](NC(=O)c1ccn(-c2cc(O[C@@H](C)[C@@H]3CCCN3C)nc(-c3noc4c3CCC[C@@]43CCCc4sc(N)c(C#N)c43)n2)n1)c1ccccn1 [II-191]
30 | 2 | 1.2 | CO[C@@H]1C[C@@H]([C@H](C)Oc2cc(N3CCN(C)C4(COC4)C3)nc(-c3noc4c3CCC[C@@]43CCCc4sc(N)c(C#N)c43)n2)N(C)C1 [II-153]
4.1 | 3 | 5.9 | C[C@H](Oc1cc(-c2ccn([C@H]3CCOC3)n2)nc(-c2noc3c2CCC[C@@]32CCCc3sc(N)c(C#N)c32)n1)[C@@H]1CCCN1C [II-127]
57.6 | 1 | 0.3 | C[C@H](Oc1cc(N2CCN[C@@H](C)C2)nc(-c2noc3c2CCC[C@@]32CCCc3sc(N)c(C#N)c32)n1)[C@@H]1CCCN1C [II-162]
4.5 | 1 | 6.2 | COCCNC(=O)c1ccn(-c2cc(O[C@@H](C)[C@@H]3CCCN3C)nc(-c3noc4c3CCC[C@@]43CCCc4sc(N)c(C#N)c43)n2)n1 [II-195]
9.6 | 9 | – | CC(C)N1CCCN(c2cc(-n3ccnc3)nc(-c3noc4c3CCC[C@@]43CCCc4sc(N)c(C#N)c43)n2)[C@@H](C)C1 [II-169]

efflux ratio at 90 min, 10 μM [1] | IC50 [2] [nM] | Papp A→B at 90 min, 10 μM [1] [×10⁻⁶ cm/s] | Structure (SMILES)
16.8 | 1 | – | C[C@H](Oc1cc(-n2cc3ccn(C4CCOCC4)c(=O)c3n2)nc(-c2noc3c2CCC[C@@]32CCCc3sc(N)c(C#N)c32)n1)[C@@H]1CCCN1C [II-206]
11 | 7 | 2 | C[C@H](Oc1cc(-n2cnc(C(=O)N(C)C)c2)nc(-c2noc3c2CCC[C@@]32CCCc3sc(N)c(C#N)c32)n1)[C@@H]1CCCN1C [II-126]
16.8 | 3 | 3.1 | CO[C@@H]1C[C@@H]([C@H](C)Oc2cc(N3CCN(C)C4(CC4)C3)nc(-c3noc4c3CCC[C@@]43CCCc4sc(N)c(C#N)c43)n2)N(C)C1 [II-152]
49.8 | 1 | 0.4 | C[C@H](Oc1cc(N2CCNC[C@@]23CCOC3)nc(-c2onc3c2CCC[C@@]32CCCc3sc(N)c(C#N)c32)n1)[C@@H]1CCCN1C [I-13]
19.9 | 1 | 8.7 | C[C@H](Oc1cc(N2C[C@H](C)N(C)[C@@H](C)C2)nc(-c2noc3c2CCC[C@@]32CCCc3sc(N)c(C#N)c32)n1)[C@@H]1CCCN1C [II-173]
0.7 | 1 | – | C[C@H](Oc1nc(-c2noc3c2CCC[C@@]32CCCc3sc(N)c(C#N)c32)nc(N2C[C@H](C)NC3(CC3)C2)c1F)[C@@H]1C[C@@H](F)CN1C [II-157]
1.2 | 1 | – | C[C@H](Oc1cc(N2CCN(C)C3(CC3)C2)nc(-c2noc3c2CCC[C@@]32CCCc3sc(N)c(C#N)c32)n1)[C@@H]1C[C@@H](F)CN1C [II-149]
5.8 | 2 | 7.9 | C[C@H](Oc1cc(-n2ccc(C3(O)COC3)n2)nc(-c2noc3c2CCC[C@@]32CCCc3sc(N)c(C#N)c32)n1)[C@@H]1CCCN1C [II-189]
138 | 1 | 0.1 | C[C@H](Oc1cc(C2=CCNCC2)nc(-c2noc3c2CCC[C@@]32CCCc3sc(N)c(C#N)c32)n1)[C@@H]1CCCN1C [II-164]
7.9 | 2 | – | C[C@H](Oc1cc(-n2cc3c(n2)CCN(C)C3)nc(-c2noc3c2CCC[C@@]32CCCc3sc(N)c(C#N)c32)n1)[C@@H]1CCCN1C [II-141]
0.7 | 14 | 15 | C[C@H](Oc1cc(-c2ccn(C)n2)nc(-c2noc3c2CCC[C@@]32CCCc3sc(N)c(C#N)c32)n1)[C@@H]1C[C@H](F)CN1C [II-144]
2.6 | 1 | – | C[C@H](Oc1cc(-n2ccc(-c3cn(CC4(C)COC4)nn3)n2)nc(-c2noc3c2CCC[C@@]32CCCc3sc(N)c(C#N)c32)n1)[C@@H]1CCCN1C [II-213]
70.2 | 1 | 0.5 | C[C@H](Oc1cc(N2CCNC[C@]23CCOC3)nc(-c2onc3c2CCC[C@@]32CCCc3sc(N)c(C#N)c32)n1)[C@@H]1CCCN1C [I-12]
0.9 | 6 | – | C[C@H](Oc1cc(-n2nccc2-c2ccncc2)nc(-c2noc3c2CCC[C@@]32CCCc3sc(N)c(C#N)c32)n1)[C@@H]1CCCN1C [II-131]
3.3 | 1 | 12 | C[C@H](Oc1cc(N2CCN(C)C3(COC3)C2)nc(-c2noc3c2CCC[C@@]32CCCc3sc(N)c(C#N)c32)n1)[C@@H]1C[C@@H](F)CN1C [II-148]
82.1 | 2 | 0.3 | C[C@H](Oc1cc(N2C[C@@H]3[C@@H](N)[C@@H]3C2)nc(-c2noc3c2CCC[C@@]32CCCc3sc(N)c(C#N)c32)n1)[C@@H]1CCCN1C [II-167]
